The subject of experiment [1] is MSSA. As to the kind of experiment: Non-replicative transduction particle luxAB reporter assay with cefoxitin. In kind it is cell-based, S. aureus. Particulars: cells not phenotypically resistant to cefoxitin (MSSA); cefoxitin added prior to, simultaneously with, or after transduction particles. From the text: (§1) To test the functionality of non-replicative transduction particles as reporters for detecting the presence of S. aureus cells, various MSSA/MRSA reporter assays were developed. In an embodiment, a non-replicative transduction particle was developed from a S. aureus-specific bacteriophage, and the bacterial luciferase genes luxAB under the control of a constitutive promoter were incorporated. When the non-replicative transduction particle delivered the reporter nucleic acid into S. aureus, the constitutive promoter expressed luxAB suitable for reporting on the presence of a viable S. aureus.
(§2) In addition, the antibiotic cefoxitin was added prior to, simultaneously with, or after the addition of the transduction particles to a sample containing S. aureus cells.

Experiment [2] deals with MRSA. Described as above. To be noted: cells phenotypically resistant to cefoxitin (MRSA); cefoxitin added prior to, simultaneously with, or after transduction particles. Type of experiment: cell-based, S. aureus.
Description: as §1, §2

Turning to `CO[C@@]1(NC(=O)Cc2cccs2)C(=O)N2C(C(=O)O)=C(COC(N)=O)CS[C@@H]21` [cefoxitin], the results for the luminescence entry in experiment [1] and in experiment [2] were “decreased or eliminated” and “increased or detectable luminescence”, respectively.

These data come from patent US10179939B2, “Growth-independent detection of cells” (GeneWeave Biosciences, Inc., priority 2014, dated 2019).
